# Literature values as cited in patent US20240100019A1, “COMPOSITIONS COMPRISING A THERMOREVERSIBLE HYDROGEL, AND HAVING AN EXTENDED IN-USE PERIOD” (UroGen Pharma Ltd., priority 2022, published 2024).
# Read-outs that look alike come from different tables or passages of the source.
# Legend:
# [1] = room temperature; pH 4.5, 5.5, 6.0 and 7.0 solutions
structure (smiles),measurement,setting,value
CO[C@@]12[C@H](COC(N)=O)C3=C(C(=O)C(C)=C(N)C3=O)N1C[C@@H]1N[C@@H]12 [mitomycin C],time for which MMC was stable (relative concentrations systematically over 90% of the initial concentrations),0.2 mg/ml in 0.9% sodium chloride solution,10 h
same,relative MMC concentration as compared to initial concentration,"after 96 h, these solutions",below 80%
same,time for which MMC was stable (relative concentrations systematically over 90% of the initial concentrations),in water for injections at a concentration of 1 mg/mL,8 h
same,degradation products observed,reconstituted and diluted solutions,below 3%
same,time at which MMC was unstable (less than 90% of the initial value),[1],< 24 h
